Columns and labels:
hCAR [1] = experiment: hCAR nuclear translocation assay in HPH; format: cell-based, human; conditions: Ad-EYFP-hCAR-infected HPH, 1 μM, 8 h
[2] = cited from earlier work
hCAR [3] = target: T1, hCAR (Homo sapiens, UniProt Q14994); experiment: hCAR agonist luciferase reporter gene assay; format: cell-based; conditions: for fold decrease in potency (EC50) compared to compound 2: hCAR EC50 vs parent compound 2; for hCAR agonist activity (in words): hCAR luciferase reporter
T1 sequence (Q14994 1-348 isoform Q14994-2): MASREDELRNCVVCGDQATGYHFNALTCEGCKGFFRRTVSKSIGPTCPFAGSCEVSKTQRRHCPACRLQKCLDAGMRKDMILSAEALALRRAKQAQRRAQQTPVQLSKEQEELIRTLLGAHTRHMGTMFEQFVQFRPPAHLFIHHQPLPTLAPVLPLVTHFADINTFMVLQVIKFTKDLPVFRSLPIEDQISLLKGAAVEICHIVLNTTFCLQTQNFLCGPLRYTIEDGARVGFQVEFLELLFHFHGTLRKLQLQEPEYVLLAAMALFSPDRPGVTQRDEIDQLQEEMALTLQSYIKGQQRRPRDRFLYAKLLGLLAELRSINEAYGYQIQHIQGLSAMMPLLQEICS
T1 sequence (P19793 1-462 partner): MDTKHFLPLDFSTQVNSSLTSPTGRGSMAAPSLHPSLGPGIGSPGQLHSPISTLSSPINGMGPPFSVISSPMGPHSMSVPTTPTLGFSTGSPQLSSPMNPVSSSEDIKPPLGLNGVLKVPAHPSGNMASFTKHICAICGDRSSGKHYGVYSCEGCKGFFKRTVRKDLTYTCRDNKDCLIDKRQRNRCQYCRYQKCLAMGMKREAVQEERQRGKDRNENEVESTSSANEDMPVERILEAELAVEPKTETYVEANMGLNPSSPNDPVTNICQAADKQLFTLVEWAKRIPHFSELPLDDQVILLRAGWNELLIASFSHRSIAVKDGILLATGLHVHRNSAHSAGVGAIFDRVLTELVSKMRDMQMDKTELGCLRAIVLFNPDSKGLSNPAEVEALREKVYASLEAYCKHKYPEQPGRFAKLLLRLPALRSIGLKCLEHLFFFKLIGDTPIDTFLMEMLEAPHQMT

hPXR = target: T2, hPXR (Homo sapiens, UniProt O75469); experiment: HepG2 cell reporter assay, hPXR activation; format: cell-based; conditions: 1 μM; for hPXR activation in HepG2 cell reporter assay (in words): normalized against rifampicin; for selectivity for hCAR over hPXR (in words): HepG2 cell reporter assays
T2 sequence (O75469 1-434): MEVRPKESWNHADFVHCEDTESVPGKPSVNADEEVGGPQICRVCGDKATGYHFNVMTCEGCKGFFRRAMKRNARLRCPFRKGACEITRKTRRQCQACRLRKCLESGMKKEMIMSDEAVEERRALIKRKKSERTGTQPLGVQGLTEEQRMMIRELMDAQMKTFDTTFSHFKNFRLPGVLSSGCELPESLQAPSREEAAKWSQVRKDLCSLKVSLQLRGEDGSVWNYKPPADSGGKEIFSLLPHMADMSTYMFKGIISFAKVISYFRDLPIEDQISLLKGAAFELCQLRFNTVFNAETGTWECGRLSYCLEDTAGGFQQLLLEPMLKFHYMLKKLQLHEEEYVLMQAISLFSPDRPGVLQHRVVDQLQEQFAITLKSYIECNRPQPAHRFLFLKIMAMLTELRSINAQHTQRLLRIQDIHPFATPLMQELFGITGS

hCAR [4] = experiment: HepG2 cell reporter assay, hCAR activation; format: cell-based, human; conditions: 1 μM; normalized against CITCO

Clc1ccc(-c2nc3sccn3c2/C=N/OCc2ccc(Cl)c(Cl)c2)cc1 [CITCO, 6-(4-chlorophenyl)imidazo-[2,1-b]thiazole-5-carbaldehyde-O-(3,4-dichlorobenzyl)oxime, reference compound]
hCAR translocation from cytoplasm to nucleus (in words) (hCAR [1]): efficiently translocated into the nucleus
stability of results in hCAR luciferase gene reporter assay (in words) [2]: unstable results

Clc1ccc(-c2nc3sccn3c2CNCCc2ccc(Cl)c(Cl)c2)cc1 [Compound 2, N-((6-(4-Chlorophenyl)imidazo[2,1-b]thiazol-5-yl)methyl)-2-(3,4-dichlorophenyl)ethan-1-amine]
fold increase in potency compared to CITCO (hCAR [3]; hCAR EC50 vs CITCO): 1.4 fold

Clc1ccc(-c2nc3sccn3c2COCCc2ccc(Cl)c(Cl)c2)cc1 [Compound 5, 6-(4-Chlorophenyl)-5-((3,4-dichlorophenethoxy)methyl)imidazo[2,1-b]thiazole]
hPXR activation in HepG2 cell reporter assay (in words) (hPXR): significantly activated hPXR

Cc1cn2c(CNCCc3ccc(Cl)c(Cl)c3)c(-c3ccc(Cl)cc3)nc2s1 [Compound 6, N-((6-(4-Chlorophenyl)-2-methylimidazo[2,1-b]thiazol-5-yl)methyl)-2-(3,4-dichlorophenyl)ethan-1-amine]
fold decrease in potency (EC50) compared to compound 2 (hCAR [3]): 5.5 fold

Clc1ccc(-c2nc3occn3c2CNCCc2ccc(Cl)c(Cl)c2)cc1 [Compound 7, N-((6-(4-Chlorophenyl)imidazo[2,1-b]oxazol-5-yl)methyl)-2-(3,4-dichlorophenyl)ethan-1-amine]
hCAR activation in HepG2 cell reporter assay (in words) (hCAR [4]): slight decrease in hCAR activation potency
fold decrease in potency (EC50) compared to compound 2 (hCAR [3]): 3.2 fold
selectivity for hCAR over hPXR (in words) (hPXR): good specificity for hCAR

Clc1ccc(-c2nc3ncccn3c2CNCCc2ccc(Cl)c(Cl)c2)cc1 [Compound 8, N-((2-(4-Chlorophenyl)imidazo[1,2-a]pyrimidin-3-yl)methyl)-2-(3,4-dichlorophenyl)ethan-1-amine]
hCAR activation in HepG2 cell reporter assay (in words) (hCAR [4]): less potent compared to CITCO
fold decrease in potency (EC50) compared to compound 2 (hCAR [3]): 2 fold

Clc1ccc(CCNCc2c(-c3ccc(Cl)cc3)nc3sccn23)cc1 [Compound 9, 2-(4-Chlorophenyl)-N-((6-(4-chlorophenyl)imidazo[2,1-b]thiazol-5-yl)methyl)ethan-1-amine]
fold decrease in potency (EC50) compared to compound 2 (hCAR [3]): 1.6 fold
selectivity for hCAR over hPXR (in words) (hPXR): maintaining selectivity for hCAR against hPXR

Clc1ccc(-c2nc3sccn3c2CNCCc2cccc(Cl)c2)cc1 [Compound 10, 2-(3-Chlorophenyl)-N-((6-(4-chlorophenyl)imidazo[2,1-b]thiazol-5-yl)methyl)ethan-1-amine]
fold decrease in potency (EC50) compared to compound 2 (hCAR [3]): 7 fold

Clc1ccc(-c2nc3sccn3c2CNCCc2ccccc2)cc1 [Compound 14, N-((6-(4-Chlorophenyl)imidazo[2,1-b]thiazol-5-yl)methyl)-2-phenylethan-1-amine]
hCAR agonist activity (in words) (hCAR [3]): potent hCAR agonist
selectivity for hCAR over hPXR (in words) (hPXR): maintaining selectivity for hCAR against hPXR

Clc1ccc(-c2nc3sccn3c2CNCc2ccccc2)cc1 [Compound 15, N-Benzyl-1-(6-(4-chlorophenyl)imidazo[2,1-b]thiazol-5-yl)methanamine]
fold decrease in potency compared to compound 14 (hCAR [3]; hCAR EC50, analog one CH2 shorter than 14): over 11 fold

Clc1ccc(-c2nc3sccn3c2CNC2Cc3ccccc3C2)cc1 [Compound 17, N-((6-(4-Chlorophenyl)imidazo[2,1-b]thiazol-5-yl)methyl)-2,3-dihydro-1H-inden-2-amine]
selectivity for hCAR over hPXR (in words) (hPXR): maintaining selectivity for hCAR against hPXR

Clc1ccc(-c2nc3sccn3c2CNc2ccc3ccccc3c2)cc1 [Compound 18, N-((6-(4-Chlorophenyl)imidazo[2,1-b]thiazol-5-yl)methyl)naphthalen-2-amine]
hCAR agonist activity (in words) (hCAR [3]): inactive

CCc1nc2sccn2c1CNCCc1ccc(Cl)c(Cl)c1 [Compound 19, 2-(3,4-Dichlorophenyl)-N-((6-ethylimidazo[2,1-b]thiazol-5-yl)methyl)ethan-1-amine]
hCAR agonist activity (in words) (hCAR [3]): dramatic drop in hCAR activity

Clc1cccc(-c2nc3sccn3c2CNCCc2ccc(Cl)c(Cl)c2)c1 [Compound 20, N-((6-(3-Chlorophenyl)imidazo[2,1-b]thiazol-5-yl)methyl)-2-(3,4-dichlorophenyl)ethan-1-amine]
fold decrease in potency (EC50) compared to compound 2 (hCAR [3]): 2.3 fold

FC(F)(F)c1ccc(-c2nc3sccn3c2CNCCc2ccc(Cl)c(Cl)c2)cc1 [Compound 22, 2-(3,4-Dichlorophenyl)-N-((6-(4-(trifluoromethyl)phenyl)imidazo[2,1-b]thiazol-5-yl)methyl)ethan-1-amine]
hCAR agonist activity (in words) (hCAR [3]): much weaker agonist

Fc1ccc(-c2nc3sccn3c2CNCCc2ccc(Cl)c(Cl)c2)cc1 [Compound 23, 2-(3,4-Dichlorophenyl)-N-((6-(4-fluorophenyl)imidazo[2,1-b]thiazol-5-yl)methyl)ethan-1-amine]
hCAR activation in HepG2 cell reporter assay (in words) (hCAR [4]): slightly decreased activation potency

Clc1ccc(CCNCc2c(-c3ccccc3)nc3sccn23)cc1Cl [Compound 24, 2-(3,4-Dichlorophenyl)-N-((6-phenylimidazo[2,1-b]thiazol-5-yl)methyl)ethan-1-amine]
hCAR activation in HepG2 cell reporter assay (in words) (hCAR [4]): slightly decreased activation potency

N#Cc1ccc(-c2nc3sccn3c2CNCCc2ccc(Cl)c(Cl)c2)cc1 [Compound 27, 4-(5-(((3,4-Dichlorophenethyl)amino)methyl)imidazo[2,1-b]thiazol-6-yl)benzonitrile]
hCAR agonist activity (in words) (hCAR [3]): significantly less active

CC(C)(C)c1ccc(-c2nc3sccn3c2CNCCc2ccc(Cl)c(Cl)c2)cc1 [Compound 28, N-((6-(4-(tert-Butyl)phenyl)imidazo[2,1-b]thiazol-5-yl)methyl)-2-(3,4-dichlorophenyl)ethan-1-amine]
hCAR agonist activity (in words) (hCAR [3]): significantly less active

Clc1ccc(CCNCc2c(-c3ccc4ccccc4c3)nc3sccn23)cc1Cl [Compound 29, 2-(3,4-Dichlorophenyl)-N-((6-(naphthalen-2-yl)imidazo[2,1-b]thiazol-5-yl)methyl)ethan-1-amine]
hCAR activation in HepG2 cell reporter assay (in words) (hCAR [4]): slight increase in activation of hCAR
fold decrease in potency (EC50) compared to compound 2 (hCAR [3]): 3 fold
selectivity for hCAR over hPXR (in words) (hPXR): retained selectivity for hCAR over hPXR

c1ccc(CCNCc2c(-c3ccc4ccccc4c3)nc3sccn23)cc1 [Compound 30, N-((6-(Naphthalen-2-yl)imidazo[2,1-b]thiazol-5-yl)methyl)-2-phenylethan-1-amine]
hPXR activation in HepG2 cell reporter assay (in words) (hPXR): significantly activated hPXR

c1ccc2c(c1)CC(NCc1c(-c3ccc4ccccc4c3)nc3sccn13)C2 [Compound 31, N-((6-(Naphthalen-2-yl)imidazo[2,1-b]thiazol-5-yl)methyl)-2,3-dihydro-1H-inden-2-amine]
hCAR activation in HepG2 cell reporter assay (in words) (hCAR [4]): enhanced hCAR activation over CITCO
hPXR activation in HepG2 cell reporter assay (in words) (hPXR): slightly increased
